Measured values taken from US20230011869A1 (Hoffmann-La Roche Inc., priority 2018, published 2023).
Structures can show the parent of a compound that is named as a salt.

The compounds below were run on Acinetobacter baumannii ATCC17961 (assay: Antimicrobial susceptibility testing: 90% growth inhibitory concentration (IC90) determination, Iso-Sensitest broth). Conditions: 90% growth inhibitory concentration, Acinetobacter baumannii ATCC17961, Iso-Sensitest broth, OD 600 nm over 16 h; read-out: ATCC17961 IC90.
Format: cell-based
Summary of the method: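 Growth followed by optical density at 600 nm every 20 minutes for 16 h at 35±2° C, with inhibition assessed in log phase to give IC90. Compounds tested as twofold dilution series (e.g. 50 to 0.097 μM final) against 5×10^(5) CFU/ml in Iso-Sensitest medium.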
`COc1ccc(-c2cnc3c(Nc4ccc(C(=O)N5CCC(CN)CC5)c(C)c4)nccn23)cc1` [Example 293, [4-(aminomethyl)piperidin-1-yl]-[4-[[3-(4-methoxyphenyl)imidazo[1,2-a]pyrazin-8-yl]amino]-2-methylphenyl]methanone] gave an IC90 of 141 nM.

Same assay, conditions: Acinetobacter baumannii, ATCC17961, 16 h, 90% growth inhibitory concentration, Acinetobacter baumannii ATCC17961, Iso-Sensitest broth, OD 600 nm over 16 h; read-out: ATCC17961 IC90
With `Cc1cc(Nc2nccn3c(-c4ccc(OCC#N)c(F)c4Cl)cnc23)ccc1C(=O)N1CCN(C(=O)N[C@@H](C)CN)CC1` [Example 162, N-[(1S)-2-amino-1-methyl-ethyl]-4-[4-[[3-[2-chloro-4-(cyanomethoxy)-3-fluoro-phenyl]imidazo[1,2-a]pyrazin-8-yl]amino]-2-methyl-benzoyl]piperazine-1-carboxamide formate] the IC90 was 46 nM. `COc1ccc(-c2cnc3c(Nc4ccc(C(=O)N5CCN(S(=O)(=O)[C@H]6CCNC6)CC5)c(C)c4)nccn23)c(F)c1F` [Example 297, [4-[[3-(2,3-difluoro-4-methoxyphenyl)imidazo[1,2-a]pyrazin-8-yl]amino]-2-methylphenyl]-[4-[(3S)-pyrrolidin-3-yl]sulfonylpiperazin-1-yl]methanone] showed an IC90 of 192 nM. Compound `COc1ccc(-c2cnc3c(Nc4ccc(C(=O)N5CCC(CN)CC5)c(C)c4)nccn23)cc1` [Example 19, (4-(aminomethyl)piperidin-1-yl)(4-((3-(4-methoxyphenyl)imidazo[1,2-a]pyrazin-8-yl)amino)-2-methylphenyl)methanone hydrochloride] has an IC90 of 82 nM. `Cc1cc(Nc2nccn3c(-c4ccc(OCC#N)c(F)c4F)cnc23)ccc1C(=O)N1CCN(C(=O)[C@H]2CCNC[C@H]2O)CC1` [Example 189, 2-[2,3-difluoro-4-[8-[4-[4-[(3S,4S)-3-hydroxypiperidine-4-carbonyl]piperazine-1-carbonyl]-3-methyl-anilino]imidazo[1,2-a]pyrazin-3-yl]phenoxy] acetonitrile formate] gave an IC90 of 60 nM. `Cc1cc(Nc2nccn3c(-c4ccc(OCC#N)c(F)c4F)cnc23)ccc1C(=O)N1CCN(C(=O)C2(O)CCNCC2)CC1` [Example 206, 2-[2,3-difluoro-4-[8-[4-[4-(4-hydroxypiperidine-4-carbonyl)piperazine-1-carbonyl]-3-methyl-anilino]imidazo[1,2-a]pyrazin-3-yl]phenoxy] acetonitrile formate] was tested, and the IC90 was 36 nM. Compound `COc1ccc(-c2cnc3c(Nc4ccc(C(=O)N5CCN(C(=O)N6CCN[C@@H](CO)C6)CC5)c(C)c4)nccn23)c(F)c1F` [Example 172, (R)-(4-(4-((3-(2,3-difluoro-4-methoxyphenyl)imidazo[1,2-a]pyrazin-8-yl)amino)-2-methylbenzoyl)piperazin-1-yl)(3-(hydroxymethyl)piperazin-1-yl)methanone hydrochloride] has an IC90 of 78 nM. `Cc1cc(Nc2nccn3c(-c4ccc(OC(F)F)cc4)cnc23)ccc1C(=O)N1CCN(C(=O)OC(C)(C)C)CC1` [Example 556, tert-butyl 4-(4-((3-(4-(difluoromethoxy)phenyl)imidazo [1,2-a]pyrazin-8-yl)amino)-2-methylbenzoyl)piperazine-1-carboxylate] showed an IC90 of 418 nM. In the case of `CCc1cc(Nc2nccn3c(-c4ccc(OC)c(F)c4F)cnc23)ccc1C(=O)N1CCNCC1` [Example 466], the IC90 is reported as 175 nM. For `Cc1cc(Nc2nccn3c(-c4ccc(OCC#N)c(F)c4Cl)cnc23)ccc1C(=O)N1CCN(C(=O)[C@@H]2CCNC[C@@H]2O)CC1` (relative stereo) [Example 223, 2-[3-chloro-2-fluoro-4-[8-[4-[4-[(3R,4R)-3-hydroxypiperidine-4-carbonyl]piperazine-1-carbonyl]-3-methyl-anilino]imidazo[1,2-a]pyrazin-3-yl]phenoxy] acetonitrile formate], the IC90 was 47 nM. Compound `Cc1cc(Nc2nccn3c(-c4ccc(OCC#N)c(F)c4Cl)cnc23)ccc1C(=O)N1CCN(C(=O)[C@@H]2CCNC2)CC1` [Example 212, 2-[3-chloro-2-fluoro-4-[8-[3-methyl-4-[4-[(3R)-pyrrolidine-3-carbonyl]piperazine-1-carbonyl]anilino]imidazo[1,2-a]pyrazin-3-yl]phenoxy] acetonitrile formate] has an IC90 of 34 nM. `COc1ccc(-c2cnc3c(Nc4ccc(C(=O)N5CCN(C(=O)NCCN)CC5)c(C)c4)nccn23)c(Cl)c1F` [Example 153, N-(2-aminoethyl)-4-[4-[[3-(2-chloro-3-fluoro-4-methoxy-phenyl)imidazo[1,2-a]pyrazin-8-yl]amino]-2-methyl-benzoyl]piperazine-1-carboxamide formate] showed an IC90 of 50 nM. Work on `COc1ccc(-c2cnc3c(Nc4ccc(C(=O)N5CCN(C(=O)[C@H]6NC[C@H](O)[C@@H]6O)CC5)c(C)c4)nccn23)c(F)c1F` [Example 234, (4-(4-((3-(2,3-difluoro-4-methoxyphenyl)imida-zo[1,2-a]pyrazin-8-yl)amino)-2-methylbenzoyl)piper-azin-1-yl)((2S,3R,4S)-3,4-dihydroxypyrrolidin-2-yl)methanone] yielded an IC90 of 133 nM. `Cc1cc(Nc2nccn3c(-c4ccc(OCC#N)c(F)c4F)cnc23)ccc1C(=O)N1CCN(C(=O)C2CCNCC2)CC1` [Example 197, 2-[2,3-difluoro-4-[8-[3-methyl-4-[4-(piperidine-4-carbonyl)piperazine-1-carbonyl]anilino]imidazo [1,2-a]pyrazin-3-yl]phenoxy] acetonitrile formate] was tested, and the IC90 was 52 nM. For `CCc1cc(Nc2nccn3c(-c4ccc(OC)c(F)c4F)cnc23)ccc1C(=O)N1CCN(CCO[C@@H]2O[C@H](CO)[C@H](O)[C@H](O)[C@H]2O)CC1` [Example 580, (4-((3-(2,3-difluoro-4-methoxyphenyl)imidazo[1,2-a]pyrazin-8-yl)amino)-2-ethylphenyl)(4-(2-(((2R,3R,4S,5R,6R)-3,4,5-trihydroxy-6-(hydroxymethyl)tetrahydro-2H-pyran-2-yl)oxy)ethyl)piperazin-1-yl)methanone], the IC90 was 601 nM. `COc1ccc(-c2cnc3c(Nc4ccc(C(=O)N5CCN(C(=O)[C@@H]6C[C@@H](C#N)CN6)CC5)c(C)c4)nccn23)c(F)c1F` [Example 574, (3R,5S)-5-[4-[4-[[3-(2,3-difluoro-4-methoxyphenyl)imidazo[1,2-a]pyrazin-8-yl]amino]-2-methylbenzoyl]piperazine-1-carbonyl]pyrrolidine-3-carbonitrile;hydrochloride] gave an IC90 of 265 nM. Compound `COc1ccc(-c2cnc3c(Nc4ccc(C(=O)N5C[C@H]6CNC[C@@H](C5)O6)c(C)c4)nccn23)c(F)c1F` [Example 581, ((1R,5S)-9-oxa-3,7-diazabicyclo[3.3.1]nonan-3 - yl)(4-((3-(2,3-difluoro-4-methoxyphenyl)imidazo[1,2-a]pyrazin-8-yl)amino)-2-methylphenyl)methanone dihydrochloride] has an IC90 of 464 nM. `Cc1cc(Nc2nccn3c(-c4ccc(OCC#N)c(F)c4Cl)cnc23)ccc1C(=O)N1CCN(C(=O)[C@@H]2CCNC[C@H]2O)CC1` [Example 221, 2-[3-chloro-2-fluoro-4-[8-[4-[4-[(3S,4R)-3-hydroxypiperidine-4-carbonyl]piperazine-1-carbonyl]-3-methyl-anilino]imidazo[1,2-a]pyrazin-3-yl]phenoxy] acetonitrile formate] showed an IC90 of 59 nM. Work on `Cc1cc(Nc2nccn3c(-c4ccc(OCC#N)c(F)c4F)cnc23)ccc1C(=O)N1CCN(C(=O)[C@@H]2CCNC2)CC1` [Example 198, 2-[2,3-difluoro-4-[8-[3-methyl-4-[4-[(3R)-pyrrolidine-3-carbonyl]piperazine-1-carbonyl]anilino]imidazo[1,2-a]pyrazin-3-yl]phenoxy] acetonitrile formate] yielded an IC90 of 39 nM. Compound `COc1ccc(-c2cnc3c(Nc4ccc(C(=O)NC5CCC(NC(=O)[C@H]6C[C@H](O)CN6)C5)c(C)c4)nccn23)c(F)c1F` (mixture of isomers) [Example 458, rac-(2R,4S)-N-[3-[[4-[[3-(2,3-difluoro-4-methoxyphenyl)imidazo[1,2-a]pyrazin-8-yl]amino]-2-methylbenzoyl]amino]cyclo-pentyl]-4-hydroxypyrrolidine-2-carboxamide] has an IC90 of 81 nM. Work on `COc1ccc(-c2cnc3c(Nc4ccc(C(=O)N5CCC(C(=O)NCC(O)CN6CCNCC6)CC5)c(C)c4)nccn23)c(F)c1F` (stereo not drawn) [Example 90, 1-(4-((3-(2,3-difluoro-4-methoxyphenyl)imidazo[1,2-a]pyrazin-8-yl)amino)-2-methylbenzoyl)-N-(2-hydroxy-3-(piperazin-1-yl)propyl)piperidine-4-carboxamide hydrochloride] yielded an IC90 of 116 nM. `Cc1cc(Nc2nccn3c(-c4ccc(OCC#N)c(F)c4F)cnc23)ccc1C(=O)N1CCN(C(=O)[C@@H]2CCNC[C@@H]2O)CC1` [Example 188, 2-[2,3-difluoro-4-[8-[4-[4-[(3R,4R)-3-hydroxypiperidine-4-carbonyl]piperazine-1-carbonyl]-3-methyl-anilino]imidazo[1,2-a]pyrazin-3-yl]phenoxy] acetonitrile formate] showed an IC90 of 51 nM. For `C#CCOc1ccc(-c2cnc3c(Nc4ccc(C(=O)N5CCN(C(=O)[C@@H]6C[C@@H](O)CN6)CC5)c(C)c4)nccn23)c(F)c1F` [Example 248, [4-[[3-(2,3-difluoro-4-prop-2-ynoxy-phenyl)imidazo[1,2-a]pyrazin-8-yl]amino]-2-methyl-phenyl]-[4-[(2S,4R)-4-hydroxypyrrolidine-2-carbonyl]piperazin-1-yl]methanone], the IC90 was 74 nM.

Same assay, conditions: Acinetobacter baumannii, ATCC17961, 16 h, read-out: ATCC17961 IC90
For `COc1ccc(-c2cnc3c(Nc4ccc(C(=O)N5CCN(C(=O)CC[C@H](NC(=O)[C@@H](N)CCCCN)C(=O)O)CC5)c(C)c4)nccn23)c(F)c1F` [Example 531, (2S)-2-[[(2S)-2,6-diaminohexanoyl]amino]-5-[4-[4-[[3-(2,3-difluoro-4-methoxyphenyl)imidazo[1,2-a]pyrazin-8-yl]amino]-2-methylbenzoyl]piperazin-1-yl]-5-oxopentanoic acid; hydrochloride], the IC90 was 686 nM.
